Data taken from ChEMBL document CHEMBL3046000, “Design and synthesis of 1-(benzothiazol-5-yl)-1H-1,2,4-triazol-5-ones as protoporphyrinogen oxidase inhibitors” (Bioorg Med Chem, 2013).

Each molecule was assayed on Digitaria sanguinalis (assay: Post-emergence herbicidal activity against Digitaria sanguinalis (hairy crabgrass) seedlings assessed as plant growth inhibition at 75 g ai/ha measured 15 days after compound treatment under greenhouse conditions). Conditions: 360 h, read-out: GI.
Assay type: functional
In the case of `CCOC(=O)CSc1nc2cc(-n3nc(C)n(C(F)F)c3=O)c(F)cc2s1`, the inhibition of growth at 75 g/ha is reported as 50%. Work on `COC(=O)Sc1nc2cc(-n3nc(C)n(C(F)F)c3=O)c(F)cc2s1` yielded an inhibition of growth at 75 g/ha of 60%.

The molecules below were run on Chenopodium album (assay: Post-emergence herbicidal activity against Chenopodium album seedlings assessed as plant growth inhibition at 150 g ai/ha measured 15 days after compound treatment under greenhouse conditions). Conditions: 360 h, read-out: GI.
Assay type: functional
In the case of `CCOC(=O)CSc1nc2cc(-n3nc(C)n(C(F)F)c3=O)c(F)cc2s1`, the inhibition of growth at 150 g/ha is reported as 80%. `COC(=O)Sc1nc2cc(-n3nc(C)n(C(F)F)c3=O)c(F)cc2s1` was tested, and the inhibition of growth at 150 g/ha was at least 90%.

What follows are molecules tested on Echinochloa crus-galli (assay: Post emergence herbicidal activity against Echinochloa crus-galli (barnyard grass) seedlings assessed as plant growth inhibition at 37.5 g ai/ha measured 15 days after compound treatment under greenhouse conditions). Conditions: 360 h, read-out: GI.
Assay type: functional
Work on `CCOC(=O)CSc1nc2cc(-n3nc(C)n(C(F)F)c3=O)c(F)cc2s1` yielded an inhibition of growth at 37.5 g/ha of under 50%. Molecule `COC(=O)Sc1nc2cc(-n3nc(C)n(C(F)F)c3=O)c(F)cc2s1` has an inhibition of growth at 37.5 g/ha of 50%.

Each molecule was assayed on Digitaria sanguinalis (assay: Post-emergence herbicidal activity against Digitaria sanguinalis (hairy crabgrass) seedlings assessed as plant growth inhibition at 150 g ai/ha measured 15 days after compound treatment under greenhouse conditions). Conditions: 360 h, read-out: GI.
Assay type: functional
In the case of `CCOC(=O)CSc1nc2cc(-n3nc(C)n(C(F)F)c3=O)c(F)cc2s1`, the inhibition of growth at 150 g/ha is reported as at least 90%. `COC(=O)Sc1nc2cc(-n3nc(C)n(C(F)F)c3=O)c(F)cc2s1` was tested, and the inhibition of growth at 150 g/ha was 60%.

Each molecule was assayed on Echinochloa crus-galli (assay: Post emergence herbicidal activity against Echinochloa crus-galli (barnyard grass) seedlings assessed as plant growth inhibition at 150 g ai/ha measured 15 days after compound treatment under greenhouse conditions). Conditions: 360 h, read-out: GI.
Assay type: functional
Work on `CCOC(=O)CSc1nc2cc(-n3nc(C)n(C(F)F)c3=O)c(F)cc2s1` yielded an inhibition of growth at 150 g/ha of at least 90%. In the case of `COC(=O)Sc1nc2cc(-n3nc(C)n(C(F)F)c3=O)c(F)cc2s1`, the inhibition of growth at 150 g/ha is reported as 60%.

These molecules were tested on Brassica juncea (assay: Post-emergence herbicidal activity against Brassica juncea seedlings assessed as plant growth inhibition at 37.5 g ai/ha measured 15 days after compound treatment under greenhouse conditions). Conditions: 360 h, read-out: GI.
Assay type: functional
`CCOC(=O)CSc1nc2cc(-n3nc(C)n(C(F)F)c3=O)c(F)cc2s1` was tested, and the inhibition of growth at 37.5 g/ha was 80%. `COC(=O)Sc1nc2cc(-n3nc(C)n(C(F)F)c3=O)c(F)cc2s1` was tested, and the inhibition of growth at 37.5 g/ha was under 50%.

What follows are molecules tested on Setaria faberi (assay: Post-emergence herbicidal activity against Setaria faberi (Giant Foxtail) seedlings assessed as plant growth inhibition at 150 g ai/ha measured 15 days after compound treatment under greenhouse conditions). Conditions: 360 h, read-out: GI.
Assay type: functional
Work on `CCOC(=O)CSc1nc2cc(-n3nc(C)n(C(F)F)c3=O)c(F)cc2s1` yielded an inhibition of growth at 150 g/ha of at least 90%. `COC(=O)Sc1nc2cc(-n3nc(C)n(C(F)F)c3=O)c(F)cc2s1` showed an inhibition of growth at 150 g/ha of under 50%.

These molecules were tested on Brassica juncea (assay: Post-emergence herbicidal activity against Brassica juncea seedlings assessed as plant growth inhibition at 150 g ai/ha measured 15 days after compound treatment under greenhouse conditions). Conditions: 360 h, read-out: GI.
Assay type: functional
With `CCOC(=O)CSc1nc2cc(-n3nc(C)n(C(F)F)c3=O)c(F)cc2s1` the inhibition of growth at 150 g/ha was at least 90%. `COC(=O)Sc1nc2cc(-n3nc(C)n(C(F)F)c3=O)c(F)cc2s1` showed an inhibition of growth at 150 g/ha of at least 90%.

These molecules were tested on Digitaria sanguinalis (assay: Post-emergence herbicidal activity against Digitaria sanguinalis (hairy crabgrass) seedlings assessed as plant growth inhibition at 37.5 g ai/ha measured 15 days after compound treatment under greenhouse conditions). Conditions: 360 h, read-out: GI.
Assay type: functional
In the case of `CCOC(=O)CSc1nc2cc(-n3nc(C)n(C(F)F)c3=O)c(F)cc2s1`, the inhibition of growth at 37.5 g/ha is reported as under 50%. For `COC(=O)Sc1nc2cc(-n3nc(C)n(C(F)F)c3=O)c(F)cc2s1`, the inhibition of growth at 37.5 g/ha was 60%.

What follows are molecules tested on Setaria faberi (assay: Post-emergence herbicidal activity against Setaria faberi (Giant Foxtail) seedlings assessed as plant growth inhibition at 75 g ai/ha measured 15 days after compound treatment under greenhouse conditions). Conditions: 360 h, read-out: GI.
Assay type: functional
`CCOC(=O)CSc1nc2cc(-n3nc(C)n(C(F)F)c3=O)c(F)cc2s1` was tested, and the inhibition of growth at 75 g/ha was under 50%. For `COC(=O)Sc1nc2cc(-n3nc(C)n(C(F)F)c3=O)c(F)cc2s1`, the inhibition of growth at 75 g/ha was under 50%.

What follows are molecules tested against T1, Protoporphyrinogen oxidase, chloroplastic (Nicotiana tabacum, UniProt O24163) (assay: Inhibition of Nicotiana tabacum (tobacco) recombinant PPO assessed as protoporphyrin IX formation at room temperature by fluorimetric assay). Conditions: not given.
T1 sequence (O24163 whole entry): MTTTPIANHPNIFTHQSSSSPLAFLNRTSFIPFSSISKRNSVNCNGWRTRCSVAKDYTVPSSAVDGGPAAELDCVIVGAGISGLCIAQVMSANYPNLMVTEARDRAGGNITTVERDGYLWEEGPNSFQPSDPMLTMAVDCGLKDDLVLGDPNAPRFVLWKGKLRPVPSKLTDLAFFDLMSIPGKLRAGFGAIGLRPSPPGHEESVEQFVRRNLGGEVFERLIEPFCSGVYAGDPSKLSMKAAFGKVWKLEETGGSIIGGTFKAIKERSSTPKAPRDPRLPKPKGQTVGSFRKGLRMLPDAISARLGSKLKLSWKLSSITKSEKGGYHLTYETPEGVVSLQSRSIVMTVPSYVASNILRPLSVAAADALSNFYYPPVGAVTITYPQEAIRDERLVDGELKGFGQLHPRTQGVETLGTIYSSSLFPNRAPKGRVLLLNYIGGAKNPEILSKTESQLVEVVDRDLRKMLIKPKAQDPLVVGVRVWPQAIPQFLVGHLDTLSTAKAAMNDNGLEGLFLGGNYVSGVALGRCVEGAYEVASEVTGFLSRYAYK
`CCOC(=O)CSc1nc2cc(-n3nc(C)n(C(F)F)c3=O)c(F)cc2s1` was tested, and the Ki was 60 nM. `COC(=O)Sc1nc2cc(-n3nc(C)n(C(F)F)c3=O)c(F)cc2s1` gave a Ki of 290 nM.

These molecules were tested on Amaranthus retroflexus (assay: Post emergence herbicidal activity against Amaranthus retroflexus seedlings assessed as plant growth inhibition at 37.5 g ai/ha measured 15 days after compound treatment under greenhouse conditions). Conditions: 360 h, read-out: GI.
Assay type: functional
Molecule `CCOC(=O)CSc1nc2cc(-n3nc(C)n(C(F)F)c3=O)c(F)cc2s1` has an inhibition of growth at 37.5 g/ha of 80%. Molecule `COC(=O)Sc1nc2cc(-n3nc(C)n(C(F)F)c3=O)c(F)cc2s1` has an inhibition of growth at 37.5 g/ha of under 50%.

What follows are molecules tested on Amaranthus retroflexus (assay: Post emergence herbicidal activity against Amaranthus retroflexus seedlings assessed as plant growth inhibition at 75 g ai/ha measured 15 days after compound treatment under greenhouse conditions). Conditions: 360 h, read-out: GI.
Assay type: functional
For `CCOC(=O)CSc1nc2cc(-n3nc(C)n(C(F)F)c3=O)c(F)cc2s1`, the inhibition of growth at 75 g/ha was 80%. With `COC(=O)Sc1nc2cc(-n3nc(C)n(C(F)F)c3=O)c(F)cc2s1` the inhibition of growth at 75 g/ha was 50%.

What follows are molecules tested on Brassica juncea (assay: Post-emergence herbicidal activity against Brassica juncea seedlings assessed as plant growth inhibition at 75 g ai/ha measured 15 days after compound treatment under greenhouse conditions). Conditions: 360 h, read-out: GI.
Assay type: functional
Work on `CCOC(=O)CSc1nc2cc(-n3nc(C)n(C(F)F)c3=O)c(F)cc2s1` yielded an inhibition of growth at 75 g/ha of 80%. With `COC(=O)Sc1nc2cc(-n3nc(C)n(C(F)F)c3=O)c(F)cc2s1` the inhibition of growth at 75 g/ha was 50%.

The molecules below were run on Setaria faberi (assay: Post-emergence herbicidal activity against Setaria faberi (Giant Foxtail) seedlings assessed as plant growth inhibition at 37.5 g ai/ha measured 15 days after compound treatment under greenhouse conditions). Conditions: 360 h, read-out: GI.
Assay type: functional
For `CCOC(=O)CSc1nc2cc(-n3nc(C)n(C(F)F)c3=O)c(F)cc2s1`, the inhibition of growth at 37.5 g/ha was under 50%. With `COC(=O)Sc1nc2cc(-n3nc(C)n(C(F)F)c3=O)c(F)cc2s1` the inhibition of growth at 37.5 g/ha was under 50%.

The molecules below were run on Chenopodium album (assay: Post-emergence herbicidal activity against Chenopodium album seedlings assessed as plant growth inhibition at 37.5 g ai/ha measured 15 days after compound treatment under greenhouse conditions). Conditions: 360 h, read-out: GI.
Assay type: functional
With `CCOC(=O)CSc1nc2cc(-n3nc(C)n(C(F)F)c3=O)c(F)cc2s1` the inhibition of growth at 37.5 g/ha was 80%. In the case of `COC(=O)Sc1nc2cc(-n3nc(C)n(C(F)F)c3=O)c(F)cc2s1`, the inhibition of growth at 37.5 g/ha is reported as 50%.

The molecules below were run on Echinochloa crus-galli (assay: Post emergence herbicidal activity against Echinochloa crus-galli (barnyard grass) seedlings assessed as plant growth inhibition at 75 g ai/ha measured 15 days after compound treatment under greenhouse conditions). Conditions: 360 h, read-out: GI.
Assay type: functional
Work on `CCOC(=O)CSc1nc2cc(-n3nc(C)n(C(F)F)c3=O)c(F)cc2s1` yielded an inhibition of growth at 75 g/ha of 50%. `COC(=O)Sc1nc2cc(-n3nc(C)n(C(F)F)c3=O)c(F)cc2s1` gave an inhibition of growth at 75 g/ha of 50%.

Each molecule was assayed on Chenopodium album (assay: Post-emergence herbicidal activity against Chenopodium album seedlings assessed as plant growth inhibition at 75 g ai/ha measured 15 days after compound treatment under greenhouse conditions). Conditions: 360 h, read-out: GI.
Assay type: functional
`CCOC(=O)CSc1nc2cc(-n3nc(C)n(C(F)F)c3=O)c(F)cc2s1` showed an inhibition of growth at 75 g/ha of 80%. `COC(=O)Sc1nc2cc(-n3nc(C)n(C(F)F)c3=O)c(F)cc2s1` showed an inhibition of growth at 75 g/ha of at least 90%.

Each molecule was assayed on Amaranthus retroflexus (assay: Post emergence herbicidal activity against Amaranthus retroflexus seedlings assessed as plant growth inhibition at 150 g ai/ha measured 15 days after compound treatment under greenhouse conditions). Conditions: 360 h, read-out: GI.
Assay type: functional
`CCOC(=O)CSc1nc2cc(-n3nc(C)n(C(F)F)c3=O)c(F)cc2s1` was tested, and the inhibition of growth at 150 g/ha was 60%. Molecule `COC(=O)Sc1nc2cc(-n3nc(C)n(C(F)F)c3=O)c(F)cc2s1` has an inhibition of growth at 150 g/ha of at least 90%.
